{"source": "patent US7384733B1", "about": "“Interface patch clamping” (Xention Discovery Limited, priority 1998, dated 2008)", "biological_target": "potassium currents (Kv1.1) in MK1 cell (Mus musculus, UniProt P16388)", "sequence (P16388 whole entry)": "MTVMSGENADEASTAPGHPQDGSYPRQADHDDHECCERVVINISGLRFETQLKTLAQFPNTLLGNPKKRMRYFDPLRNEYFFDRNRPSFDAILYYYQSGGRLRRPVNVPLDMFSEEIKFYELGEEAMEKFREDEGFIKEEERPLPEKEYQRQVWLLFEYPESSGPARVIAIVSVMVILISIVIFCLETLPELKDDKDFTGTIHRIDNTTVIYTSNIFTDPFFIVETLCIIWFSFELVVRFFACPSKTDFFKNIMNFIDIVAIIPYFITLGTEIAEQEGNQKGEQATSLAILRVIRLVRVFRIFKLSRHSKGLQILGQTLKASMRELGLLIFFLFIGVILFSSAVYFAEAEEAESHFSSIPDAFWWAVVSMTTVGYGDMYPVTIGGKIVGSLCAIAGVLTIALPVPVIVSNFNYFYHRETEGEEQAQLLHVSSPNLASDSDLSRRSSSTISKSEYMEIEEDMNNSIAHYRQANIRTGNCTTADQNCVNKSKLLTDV", "conditions": "TEA 5 mM in extracellular solution in the dish, then washing; FIG. 21", "from_the_text": "The solution may be exchanged readily by perfusion of the dish and this allows multiple drug additions and dose response curves to be obtained while recording from the one cell.\nThe holding potential was −60 mV and (a) and (b) show outward potassium currents (Kv1.1) in response to a voltage step to +30 mV.", "data": [{"smiles": "CC[N+](CC)(CC)CC", "note": "[TEA, tetraethylammonium]", "values": [{"measurement": "effect on the potassium current recorded from MK1 cell in whole cell recording mode", "result": "blocking effect of TEA was reversed by washing"}]}]}
